Source: patent US4813876A, “Method of treating living pulp tissue” (Dentsply Research & Development Corp., priority 1987, dated 1989)

System: L929 mouse fibroblast cells
Test: Tissue culture MEM elution test (cytotoxicity)
Assay type: cell-based
Details: 25 mg
Method: One accepted method for determining the necessary biocompatibility of various compositions toward living tissue is an in vitro cell culture biocompatibility method wherein samples of the compositions to be tested are extracted in a bovine serum solution in a Minimum Essential Medium (MEM), whereafter the bovine serum solution and specified animal cells, such as human (WI-38), L929 mouse fibroblast cells or their equivalent, are incubated in a MEM for a predetermined period of time, and the incubated cells are visually observed and graded for cytotoxic manifestations. See, for example, R. E. Wilsnack, Quantitative Cell Culture Biocompatibility Testing of Medical Devices and Correlation To Animal Tests, Biomat, Med. Dev. Art. Org., 4(3& 4), 235-261 (1976). In connection with the present compositions, the in vitro cell culture method preferably is performed using L929 mouse fibroblast cells which have been cultured in a growth medium consisting of 5% bovine serum solution in MEM, wherein the bovine serum solution initially was used to extract a specified mass of cured or uncured material, as the case may be, and wherein the cells were incubated at 37°±2° C. for a specified period of time, e.g., 24, 48 or 72 hours. The degree of toxicity may be stated as a function of the percentage of the cells which have been lysed or fixed over the test period. […]

For `[Ca+2].[OH-].[OH-]` [Calcium Hydroxide, calcium hydroxide], the “Cytotoxic manifestation (footnote ***)” value (2 hours after extract placed on cells) was “All cells dead after 2 hours” and the “24 hr results (% Lysed or fixed)” value (Table I, curing time 0 s, 24 hr) was 100%.
